Measurements published in the NIST ThermoML archive (doi:10.1021/je900596d).

Conditions: 348.16 K, Liquid, Vibrating tube method

FC(F)=C(F)C(F)(F)F [hexafluoropropene]
Conditions	mass density [kg/m3]
3450.8 kPa	1027.09
3473.5 kPa	1028.21
3495.4 kPa	1029.31
3556 kPa	1032.19
3620.1 kPa	1035.16
3683.5 kPa	1037.98
3748.1 kPa	1040.81
3811.8 kPa	1043.57
3875.5 kPa	1046.1
4030.8 kPa	1052.17
4092 kPa	1054.62
4154 kPa	1057.08
4217.2 kPa	1059.37
4278.7 kPa	1061.59
4339.9 kPa	1063.83
4402.1 kPa	1065.77
4464.2 kPa	1067.89
4526 kPa	1070.05
4587.8 kPa	1072.01
4650.2 kPa	1074.03
4713.9 kPa	1075.88
4776 kPa	1077.88
4837.4 kPa	1079.66
4898.5 kPa	1081.71
4959.8 kPa	1083.32
5022.6 kPa	1085.31
5083.3 kPa	1086.88
5144.8 kPa	1088.55
5206 kPa	1090.21
5267.2 kPa	1091.82
5329.1 kPa	1093.58
5389.3 kPa	1095.16
5451.8 kPa	1096.85
5513.3 kPa	1098.5
5576.7 kPa	1100.15
5638.9 kPa	1101.65
5701.8 kPa	1103.22
5762.2 kPa	1104.69
5825.1 kPa	1106.21
5886.9 kPa	1107.77
5948.2 kPa	1109.1
6012.5 kPa	1110.68
6074.1 kPa	1112.14
6135.8 kPa	1113.56
6199.8 kPa	1114.99
6262.2 kPa	1116.4
6326.8 kPa	1117.78
6392.4 kPa	1119.12
6456 kPa	1120.57
6517.7 kPa	1121.84
6581 kPa	1123.2
6643.4 kPa	1124.53
6706.3 kPa	1125.82
6767.7 kPa	1127.07
6830.9 kPa	1128.32
6893 kPa	1129.63
6955.9 kPa	1130.87
7017.5 kPa	1132.05
7142.8 kPa	1134.61
7205.4 kPa	1135.79
7269.5 kPa	1136.95
7332.4 kPa	1138.09
7396.2 kPa	1139.31
7458.5 kPa	1140.53
7521.9 kPa	1141.64
7584.8 kPa	1142.73
7646.8 kPa	1143.93
